Measurements published in patent US11382919B2 (priority 2017, dated 2022).

Tests used:
PLSCR1 = assay: Ionomycin activation of PLSCR1 (microscopy, co-immunoprecipitation/anti-phosphotyrosine blot); format: cell-based, human; conditions: CaSki cells; 1 μM ionomycin; 15 minutes; immunoblotting
Description: (§1) FIG. 9A-9E. Ionomycin activates phospholipid scramblase leading to externalization of phosphatidylserines and Akt. (A). CaSki cells were treated with ionomycin (1 μM), HSV-2(G) (MOI 5 pfu/cell) or DMSO (0.1%) for 15 minutes and then fixed and stained with antibodies to PLSCR1 (polyclonal rabbit and Alexa 555, red), PtdS (monoclonal antibody and Alexa555, red), or Akt (polyclonal rabbit and secondary Alexa488, green) as indicated. Nuclei were stained blue with DAPI. Images are representative of results obtained from 2-3 independent experiments; bar=10 μm. Five fields were scanned and mean fluorescence intensity (MFI) per cell calculated using ImageJ software (NIH); results are mean+SEM and the asterisks indicate significant differences by ANOVA compared to DMSO control treated cells. (B). CaSki cells were treated as in A for 15 minutes and then cell lysates were harvested, incubated with a goat anti-PLSCR1 antibody and immune complexes precipitated with protein G-agarose and analyzed by Western blotting with a mouse anti-phosphotyrosine mAb (PY20) or mouse anti-PLSCR1 Ab. […] (C). […] Cell surface proteins were biotinylated and precipitated with streptavidin magnetic beads and the pellet analyzed by immunoblotting with rabbit anti-pAktThr^308 or mouse anti-pAktS^473 1 Abs. In parallel, cellular lysates were analyzed by immunoblotting for total cellular Akt (rabbit polyclonal Ab). […]

Akt = assay: Ionomycin-induced Akt phosphorylation (biotinylation of cell surface proteins, immunoblot); format: cell-based, human; conditions: CaSki cells; 1 μM ionomycin; 5 or 15 minutes; immunoblotting
Description: as §1

CaSki and HaCAT cells = conditions: 3 independent experiments, FIG. 13
[1] = test system: phosphatidylserines (PtdS), Akt, PLSCR1 at the outer leaflet of the plasma membrane; assay: Confocal imaging of HSV-induced externalization of PtdS, Akt and PLSCR1 in non-permeabilized cells; format: cell-based, human
HSV-1 = conditions: sporadic fatal encephalitis; optimal intravenous acyclovir therapy; cited from earlier work
HSV-2(G) = assay: Viral plaque assay with HSV-2(G); format: cell-based; conditions: 5 μM R5421 pretreatment, drug added back to overlay, plaques 48 h post-infection
HSV-2(333ZAG) = format: cell-based; conditions: Vk2E6/E7 cells, R5421 pretreatment
HSV-1(VP26GFP) = format: cell-based; conditions: Vk2E6/E7 cells, R5421 pretreatment

## C[C@H](CCC(=O)O)C[C@H](C)C[C@H](C)C(=O)/C=C(\O)[C@H](C)C[C@H](C)C/C=C/[C@@H](C)[C@@H](O)[C@@H](C)[C@@H](O)C[C@@H]1CC[C@@](C)([C@H]2CC[C@@](C)([C@@H](C)O)O2)O1 [ionomycin]
PLSCR1
  phosphorylated PLSCR1: an increase in phosphorylated PLSCR1
Akt
  phosphorylated Akt: phosphorylated Akt (both at the threonine 308 and serine 473 sites)

## Nonoxynol-9 [N9]
CaSki and HaCAT cells
  cytotoxicity, cell viability as percentage of control: kills cells

## CC(=O)OCOC(=O)CN(CC(=O)OCOC(C)=O)c1ccccc1OCCOc1ccccc1N(CC(=O)OCOC(C)=O)CC(=O)OCOC(C)=O [BAPTA-AM]
[1]; 100 μM pretreatment, CaSki, […]
  number of cells with detectable PtdS, Akt, or PLSCR1 at the outer leaflet: significantly reduced

## Nc1nc2c(ncn2COCCO)c(=O)[nH]1 [acyclovir, 9-[2-hydroxymethyl]guanine]
HSV-1
  mortality: 14-19%
  survivors who resume a normal lifestyle: < 50%

## O=C(O)C(=O)O [R5421, ethanedioic acid]
HSV-2(G); CaSki cells
  reduction of HSV-2 plaque formation relative to DMSO treated controls: 88±7%
HSV-2(G); HaCAT cells
  reduction of HSV-2 plaque formation relative to DMSO treated controls: 71.7±7%
HSV-2(G); VK2E6/E7 cells
  reduction of HSV-2 plaque formation relative to DMSO treated controls: 95±6%
HSV-2(333ZAG)
  infection, percentage of GFP positive cells 16 h pi: reduced
HSV-1(VP26GFP)
  infection, percentage of GFP positive cells 16 h pi: reduced
[1]
  PtdS and Akt externalization: prevented PtdS and Akt externalization
[1]; CaSki cells, 5 μM R5421 15 min pretreatment, […]
  viral induced externalization of PtdS: prevented the viral induced externalization of PtdS
[1]; R5421 added 30 min pi, CaSki, […]
  PtdS and Akt at the outer leaflet: persistence of PtdS and Akt at the outer leaflet for up to 4 h pi
